# Experimental data: publication PMC10222839, “Development of Novel Small-Molecule Activators of Pyruvate Kinase Muscle Isozyme 2, PKM2, to Reduce Photoreceptor Apoptosis” (Pharmaceuticals, 2023)
# Columns and labels:
# [1] = biological target: T1, pyruvate kinase (PK) activity in rat retina (Rattus norvegicus, UniProt P11980); test: PK activity in rat retina after intravitreal injection; format: in vivo; settings: increasing concentrations, intravitreal injection in rats, retina 4 h
# T1 construct: the retina from each rat eye was dissected from the RPE-choroid, homogenized, and lysed; from tissue; host or cells: retina of adult Brown-Norway rats
# T1 sequence (P11980 1-531 isoform P11980-2): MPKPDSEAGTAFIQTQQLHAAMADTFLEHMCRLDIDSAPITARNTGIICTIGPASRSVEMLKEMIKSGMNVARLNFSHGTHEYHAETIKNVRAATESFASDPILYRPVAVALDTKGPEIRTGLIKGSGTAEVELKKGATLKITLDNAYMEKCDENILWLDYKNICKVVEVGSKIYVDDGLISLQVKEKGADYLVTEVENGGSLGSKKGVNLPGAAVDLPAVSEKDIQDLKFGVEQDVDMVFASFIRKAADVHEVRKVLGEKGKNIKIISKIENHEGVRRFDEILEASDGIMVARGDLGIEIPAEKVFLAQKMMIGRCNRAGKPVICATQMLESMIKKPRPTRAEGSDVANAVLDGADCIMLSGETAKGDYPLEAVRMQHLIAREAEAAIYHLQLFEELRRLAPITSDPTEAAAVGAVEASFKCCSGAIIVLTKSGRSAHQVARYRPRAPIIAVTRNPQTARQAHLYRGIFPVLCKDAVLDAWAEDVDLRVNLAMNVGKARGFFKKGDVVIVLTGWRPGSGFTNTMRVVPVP
# Description: The intravitreal injection of medications has revolutionized how numerous retinal diseases are treated and are ever-increasing in ophthalmic clinical practice. Therefore, to assess the ability of these small molecules to activate PK in vivo in the rat retina, we utilized this well-accepted drug delivery method. Two microliters of each respective compound at 850 μM or DMSO were intravitreally injected into rat eyes. The vitreous volume of the rat eye was assumed to be 15 μL, giving a final intravitreal concentration of approximately 100 μM for each compound after injection. Retinas were harvested four hours after injection, lysed, and assayed for PK activity as previously described. The eyes treated with DMSO served as the control upon which PK activation was based.
# Two microliters of each respective compound at 8.5 μM (final vitreous concentration of 1 μM) or DMSO was intravitreally injected into rat eyes, and the PK activity was assessed four hours later.
# Animals. Intravitreal injections of various small-molecule PKM2 activators or vehicle (DMSO) were performed in Brown-Norway adult rats. The rats were anesthetized with ketamine (90 mg/mL) and xylazine (10 mg/mL) and their pupils dilated with topical phenylephrine (2.5%) and tropicamide (1%) as described previously. A sclerotomy was created with a 25-gauge microvitreoretinal blade (Walcott Rx Products, Ocean View, NJ, USA) just posterior to the limbus. A blunt 35-gauge cannula was inserted through this sclerotomy into the vitreous cavity to deliver 2 μL of different concentrations of small-molecule activator or DMSO. This injection volume produces minimal reflux with adequate reproducibility. Fifteen microliters of vitreous volume was assumed in rats to calculate the intravitreal concentrations of the compound after injection. As we have previously described, left eyes were treated with small-molecular activator, while right eyes were treated with DMSO, which served as the control upon which pyruvate kinase activation was based. Four hours later, the retina from each rat eye was dissected from the RPE-choroid, homogenized, and lysed in RIPA Lysis and Extraction Buffer with protease inhibitors. The pyruvate kinase (PK) activity assay, as described above, was performed using 4 to 8 microliters of rat retinal lysate, similar to what we and others have previously described. Analogous to the cell culture assays, the total protein of the lysate was used to normalize pyruvate kinase activity.
# [2] = tested on: cleaved caspase-8-positive cells in the retina; test: Experimental retinal detachment, flow cytometry of cleaved caspase 8; format: in vivo; settings: rat retinal detachment, highest dose tested (1 mM final vitreous), intravitreal, 3 days, versus DMSO
# Excerpt: Caspase activation, including caspase 8, increases 3 days status post experimental retinal detachment and has been validated to be a marker of photoreceptor apoptosis and the extent of retinal-detachment-induced photoreceptor cell death. Additionally, this caspase activation coincides with the peak of the terminal deoxynucleotidyl transferase dUTP nick end labeling (TUNEL) staining of photoreceptors, specifically after experimental retinal detachment in rodents. So, the detection and quantification of cleaved caspase 8 can be used as a marker of photoreceptor death after experimental retinal detachment and to assess the efficacy of neuroprotective agents. As such, different concentrations of compound 2 or its vehicle, DMSO, were injected at the time of retinal detachment creation in rats, and the retinas were harvested 3 days later to assess caspase 8 activation.
# Detachments were created in rats as previously outlined. In brief, rats were anesthetized with ketamine (100 mg/mL) and xylazine (20 mg/mL), and their pupils were dilated as above. […]
# After washing the cells in ice-cold PBS, the cells were fixed with 4% paraformaldehyde for 20 min at room temperature followed by two PBS washes via centrifugation at 300× g for 10 min at 4 °C. […] Data were analyzed with FCS Express software (De Novo Software, Ontario, CA, USA).
smiles,measurement,setting,value
Cn1c2cc([S+](C)[O-])ccc2c2cnn(Cc3cccc(N)c3)c(=O)c21 (stereo not drawn) [Compound 2],AC50,[1]; read-out: in vivo AC50,299 ± 42 nM
same,Emax,"[1]; rat, normalized to DMSO, read-out: in vivo PK activity (maximum activation)",183 ± 4%
same,percentage of cleaved caspase-8-positive cells in the retina,[2],statistically significantly reduced
